In the assay the target is T1, 'rmTLR1 and 2' mixture (Mus musculus, UniProt Q9EPQ1+Q9QUN7).
T1 construct: Fc (chimera); purchased R&D Systems RDS1476TR050 + RDS1530TR050
T1 sequence (Q9EPQ1 26-582 limits assumed): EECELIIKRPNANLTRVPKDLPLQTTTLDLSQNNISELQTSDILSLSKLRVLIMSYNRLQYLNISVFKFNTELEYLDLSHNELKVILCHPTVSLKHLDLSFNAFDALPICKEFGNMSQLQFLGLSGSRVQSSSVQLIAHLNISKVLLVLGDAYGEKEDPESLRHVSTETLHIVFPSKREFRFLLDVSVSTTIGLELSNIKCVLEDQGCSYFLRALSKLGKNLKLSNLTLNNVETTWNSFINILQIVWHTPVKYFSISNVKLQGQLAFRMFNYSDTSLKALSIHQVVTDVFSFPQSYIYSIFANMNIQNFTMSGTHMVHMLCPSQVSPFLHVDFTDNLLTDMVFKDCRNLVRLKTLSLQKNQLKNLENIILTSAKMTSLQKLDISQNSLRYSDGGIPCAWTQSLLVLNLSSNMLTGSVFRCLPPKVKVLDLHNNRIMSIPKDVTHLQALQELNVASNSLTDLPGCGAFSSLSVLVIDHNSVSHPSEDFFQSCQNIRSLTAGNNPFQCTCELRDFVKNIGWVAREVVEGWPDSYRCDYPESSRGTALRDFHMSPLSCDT
T1 sequence (Q9QUN7 25-587 limits assumed): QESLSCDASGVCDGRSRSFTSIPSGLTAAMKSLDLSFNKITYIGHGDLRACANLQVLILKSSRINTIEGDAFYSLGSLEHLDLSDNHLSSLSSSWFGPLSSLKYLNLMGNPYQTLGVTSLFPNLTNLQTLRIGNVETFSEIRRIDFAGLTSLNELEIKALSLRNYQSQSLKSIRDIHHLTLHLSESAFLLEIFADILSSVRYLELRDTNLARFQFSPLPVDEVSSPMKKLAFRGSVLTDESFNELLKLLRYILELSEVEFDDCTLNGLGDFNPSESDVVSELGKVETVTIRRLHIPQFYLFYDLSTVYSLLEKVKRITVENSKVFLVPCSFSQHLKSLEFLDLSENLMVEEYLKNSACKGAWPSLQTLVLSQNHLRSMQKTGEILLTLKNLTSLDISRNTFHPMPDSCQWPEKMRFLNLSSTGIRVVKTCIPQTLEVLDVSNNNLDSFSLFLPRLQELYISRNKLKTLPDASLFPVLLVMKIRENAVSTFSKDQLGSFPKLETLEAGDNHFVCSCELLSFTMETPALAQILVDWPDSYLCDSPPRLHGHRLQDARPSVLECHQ
The experiment in a line: Label-free hybridized 'TLR1 and 2' sensor, EIS detection of Pam3CSK4 (Example 7). The conditions noted are these: for delta Rct % / Rct: 'TLR1 and 2' sensor; for delta Rct %: 20 minutes; for Rct: before immersion 5472. The assay is classed as binding. As to the method:
TLR sensors were prepared using fresh, cleaned gold electrodes. The electrodes were immersed in a 2 mM 1-lipoic acid n-hydroxysuccinimide ester (LPA) ethanol solution for 48 hours at 277 K. The electrodes were then rinsed thoroughly using absolute ethanol and blown dry under nitrogen before incubation in 200 μg/ml rmTLR1, 200 μg/ml rmTLR2 and 200 μg/ml ‘rmTLR1 and 2’ mixture for 72 hours at 277 K. The rmTLR1 and 2 mixture was prepared by mixing 200 μg/ml rmTLR1 and 200 μg/ml rmTLR2 with a volume ratio of 1:1. The final concentration of each component was 100 μg/ml and the total concentration of the combined TLR protein content was 200 μg/ml. Following the supplier's recommended conditions, all TLRs were prepared in PBS buffer (pH˜7.4). The electrodes were rinsed with an excess volume of Milli-Q water and blown dry under nitrogen. An ethanolamine-tris buffer solution was prepared by dissolving 1.2 g of ethanolamine and 0.121 g of Tris base in 20 mL of water, the pH was adjusted to 8.4 using hydrochloric acid. TLR-immobilized electrodes were incubated in the ethanolamine solution for one hour at room temperature in order to block any remaining unreacted LPA amine sites. The fabricated sensors with immobilized, standalone rmTLR3, rmTLR4/MD-2 and rmTLR5, used for the selectivity test, were prepared using the same protocol described above.
Pam3CSK4 was dissolved in 10 mM HEPES aqueous buffer at pH˜7.4. The blocked rmTLR biosensors were incubated in Pam3CSK4 at various concentrations for 20 minutes. The electrodes were always washed thoroughly with same HEPES buffer (pH˜7.4) after the incubation.
All electrochemical measurements were carried out using a cell with a three-electrode configuration in an enclosed Faraday cage. CV and EIS measurements were completed using a CHI-660b potentiostat (CH Instruments, Austin, Tex.). rmTLR-modified gold electrodes and platinum (Pt) wire were used as the working electrode and the counter electrode, respectively. A reference electrode (Ag/AgCl/3.0M KCl) and a salt bridge, filled with an agar and 1M KNO3 aqueous solution, were inserted to minimize the diffusion of chloride ions into the electrolyte solution. The agar solution was prepared by dissolving 2.0 grams of agar and 10.1 g KNOB in 100 mL of water. The CV and EIS electrolyte was made in a 10 mM HEPES aqueous buffer at pH˜7.4, which consisted of a 5 mM K4Fe(CN)6/5 mM K3Fe(CN)6 as a redox couple with 1M of NaClO4 as the supporting electrolyte. For consistency, the electrochemical measurements were carried out with open-circuit potentials. EIS experiments were conducted in the frequency range of 100,000 to 0.1 Hz with an amplitude of 5 mV. The experimental EIS curves were evaluated to determine the film resistance using ZSimpWin 2.0 software.

Data on one substance can be found in patent US10794932B2, “Biosensor for the detection of a biological target, and method for manufacturing the same” (The Governing Council of The University of Toronto, priority 2016, dated 2020).

Take Pam3CSK4: the “delta Rct %” value (5 μM) was determined as 37±11%, the “delta Rct %” value (25 μM) is 125±19% and the “delta Rct %” value (50 μM) is reported as 199±26%. Also, the Rct is on record as 5688 Ω · cm^2 (after 5 μM), 7147 Ω · cm^2 (after 10 μM), 11260 Ω · cm^2 (after 25 μM) and 15620 Ω · cm^2 (after 50 μM). Besides, the limit of detection (hybridized 'TLR1 and 2' sensor) is 5 µM.
